According to patent US11629135B2 (JUBILANT PRODEL LLC, priority 2017, dated 2023):
Read-outs that look alike come from different tables or passages of the source.

Legend:
[1] = Intravenous and oral pharmacokinetics in mice; assay type: in vivo, Balb/c mice; conditions: for Vd: iv, 2 mg/kg; for half-life: read-out: t1/2, β (converted)
From the text: Pharmacokinetics Evaluation of Compound-45: Animal Experiments Details
Institutional Animal Ethical Committee (IAEC) of Jubilant Biosys (IAEC/JDC/2018/158) nominated by CPCSEA (Committee for the Purpose of Control and Supervision of Experiments on Animals) approved the mice pharmacokinetic experiments. Male Balb/c mice (˜6-8 weeks old with body weight range of 22-25 g) were procured from Vivo Biotech, Hyderabad, India. Animals were quarantined in Jubilant Biosys Animal House for a period of 7 days with a 12:12 h light:dark cycles, and prior study the animals were stratified as per body weight. Animals had free access to feed (Altromin Spezialfutter GmbH & Co. KG., Im Seelenkamp 20, D-32791, Lage, Germany) and water ad-libitum.
Intravenous and oral pharmacokinetics study was done at a dose of 2 and 10 mg/kg and at a dose volume of 10 mL/kg. Serial blood samples (200 μL) were collected from retro-orbital plexus at 0.083 (Only for IV), 0.15, 0.5, 1, 2, 4, 8, 10 (only for PO) and 24 h. Blood samples collected in tubes containing K2.EDTA as anticoagulant and centrifuged for 5 min at 14000 rpm in a refrigerated centrifuge (Biofuge, Heraeus, Germany) maintained at 4° C. for plasma separation.
Group I (PO) (22-25 g) received compound-45 at 10 mg/Kg (suspension formulation prepared using 0.5% methylcellulose and Tween-80; dose volume: 10 mL/Kg), whereas group II received IV (24-25 g) received compound-45 intravenously [5% DMSO, 5% Solutol:absolute alcohol (1:1, v/v) and 90% of normal saline; strength: 0.2 mg/mL; dose volume: 10 mL/Kg] at 2.0 mg/Kg dose. Post-dosing serial blood samples (200 μL), sparse sampling was done and at each time point three mice were used for blood sampling) were collected at regular intervals using heparinized capillaries through retro-orbital plexus into polypropylene tubes containing K2.EDTA solution as an anti-coagulant. Animals were allowed to eat feed 2 h post dose of compound-45. Blood concentration-time data of compound-45 was analyzed by non-compartmental method using Phoenix WinNonlin Version 7.0.

[2] = Metabolic stability in liver microsomes (mouse); assay type: in vitro ADME; conditions: mice liver microsomes 0.5 mg/mL, compound 1 μM, NADPH, up to 30 min
Description: (§1) Metabolic Stability in Liver Microsomes
(§2) Procedure: Potassium phosphate buffer (66.7 mM, pH 7.4) containing mouse or rat or dog or monkey or human liver microsomes (0.5 mg/mL) was pre-incubated separately with compound (1 μM) and positive control (verapamil, 1 μM) in a 37° C. water bath for 5 min. The reactions were initiated by adding 20 μL of 10 mM NADPH. Reactions without NADPH (0 and 30 min) were also incubated to rule out non-NADPH metabolism or chemical instability in the incubation buffer. All reactions were terminated using 200 μL of ice-cold acetonitrile containing internal standard at 0, 5, 15 and 30 min. The vials were centrifuged at 3000 rpm for 15 min. The reaction mixtures (obtained from the above studies) were extracted, processed and analyzed by LC-MS [Shimadzu SIL LC series (Kyoto, Japan) was coupled to an API-4000 Mass Spectrometer (MDS Sciex, Toronto, Canada)] to monitor the disappearance of compound.

[3] = Metabolic stability in liver microsomes (rat); assay type: in vitro ADME; conditions: rat liver microsomes 0.5 mg/mL, compound 1 μM, NADPH, up to 30 min
Description: as §1, §2

[4] = Metabolic stability in liver microsomes (dog); assay type: in vitro ADME; conditions: dog liver microsomes 0.5 mg/mL, compound 1 μM, NADPH, up to 30 min
Description: as §1, §2

[5] = Metabolic stability in liver microsomes (human); assay type: in vitro ADME; conditions: human liver microsomes 0.5 mg/mL, compound 1 μM, NADPH, up to 30 min
Description: as §1, §2

CYP 2C9 = molecular target: T1, CYP 2C9 (Homo sapiens, UniProt P11712); assay: CYP inhibition in human liver microsomes (CYP2C9); assay type: in vitro ADME; conditions: hydroxylation of diclofenac, read-out: predicted IC50, CYP 2C9
T1 construct: assessed in human liver microsomes (procured from GIBCO Invitrogen); tissue GIBCO Invitrogen; host or cells: human liver microsomes
Description: (§3) CYP inhibition potential of compound was assessed in human liver microsomes (procured from GIBCO Invitrogen) against CYP3A4, 2D6, 2C9, 2C19 and 1A2 in the following sequential steps. Standard reaction mixture (final volume 300 μL) contained […] potassium phosphate buffer (pH 7.4), protein (0.1, 0.25, 0.5, 0.5 and 0.5 mg/mL concentration for CYP3A4, 2D6, 2C9 2C19 and 1A2 respectively) and compound (at eight different concentration levels ranging from […], added as 0.9 μL DMSO solution with a final DMSO concentration of […]). The mixtures were pre-incubated at 37±1° C. for 5 min. The reaction (in duplicate) was initiated by addition of 30 μL of NADPH (10 mM). Reaction was terminated at 10 min by adding 300 μL of acetonitrile. The activity of liver microsomes was confirmed with positive controls i.e., monitoring the hydroxylation of midazolam for CYP 3A4, hydroxylation of bufuralol for CYP 2D6, hydroxylation of diclofenac for CYP 2C9, hydroxylation of omeprazole for CYP2C19 and O-Deethylation for CYP 1A2. The reaction mixtures (obtained from the above studies) were extracted, processed and analyzed by LC-MS [Shimadzu SIL LC series (Kyoto, Japan) was coupled to an API-4000 Mass Spectrometer (MDS Sciex, Toronto, Canada)].

CYP2C19 = molecular target: T2, CYP2C19 (Homo sapiens, UniProt P33261); assay: CYP inhibition in human liver microsomes (CYP2C19); assay type: in vitro ADME; conditions: hydroxylation of omeprazole (CYP2C19 per method), read-out: predicted IC50, hydroxylation of omeprazole
T2 construct: assessed in human liver microsomes (procured from GIBCO Invitrogen); tissue GIBCO Invitrogen; host or cells: human liver microsomes
Description: as §3

[6] = male, mouse, plasma, Balb C mice, IV dose of 2 mg/Kg
[7] = male, mouse, plasma, Balb C mice, oral dose of 10 mg/Kg

T1 sequence (P11712 whole entry): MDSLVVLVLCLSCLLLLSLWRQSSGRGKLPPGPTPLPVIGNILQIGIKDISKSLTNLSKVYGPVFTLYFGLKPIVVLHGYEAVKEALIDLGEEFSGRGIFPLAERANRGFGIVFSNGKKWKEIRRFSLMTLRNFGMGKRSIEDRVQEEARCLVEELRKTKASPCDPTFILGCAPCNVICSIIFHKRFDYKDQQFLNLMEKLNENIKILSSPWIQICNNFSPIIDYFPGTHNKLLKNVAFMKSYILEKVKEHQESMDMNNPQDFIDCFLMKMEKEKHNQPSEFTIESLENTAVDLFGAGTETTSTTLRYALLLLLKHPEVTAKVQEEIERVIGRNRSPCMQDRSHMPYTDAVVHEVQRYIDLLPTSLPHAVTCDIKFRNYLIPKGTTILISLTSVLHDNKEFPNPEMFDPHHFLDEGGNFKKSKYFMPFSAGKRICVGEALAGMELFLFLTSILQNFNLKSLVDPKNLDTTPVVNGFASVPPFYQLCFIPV
T2 sequence (P33261 whole entry): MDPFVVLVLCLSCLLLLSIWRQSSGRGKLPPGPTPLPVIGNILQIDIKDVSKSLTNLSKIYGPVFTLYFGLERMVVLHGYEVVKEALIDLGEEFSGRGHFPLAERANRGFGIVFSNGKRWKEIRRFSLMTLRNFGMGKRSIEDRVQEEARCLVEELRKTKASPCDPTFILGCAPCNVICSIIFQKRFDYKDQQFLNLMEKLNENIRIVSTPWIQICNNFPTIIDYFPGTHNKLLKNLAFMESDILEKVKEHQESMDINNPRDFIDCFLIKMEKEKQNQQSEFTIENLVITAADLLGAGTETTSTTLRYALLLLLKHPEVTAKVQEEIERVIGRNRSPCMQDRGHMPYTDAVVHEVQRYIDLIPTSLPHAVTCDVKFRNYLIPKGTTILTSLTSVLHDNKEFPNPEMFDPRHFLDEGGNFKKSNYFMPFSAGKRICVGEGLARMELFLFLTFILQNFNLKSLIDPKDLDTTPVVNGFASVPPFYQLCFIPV

Tlast ([1]; Balb C mice, IV dose of 2 mg/Kg): 8.00 h | Tlast ([1]; Balb C mice, oral dose of 10 mg/Kg): 24.0 h | Oral bioavailability (F %) ([1]; Balb C mice, oral dose of 10 mg/Kg, 10 mg/kg): 90.6% | Vd ([1]; male, Balb/c, mouse, plasma, Balb C mice, IV dose of 2 mg/Kg, read-out: Vd): 0.74 L/kg | Vd ([1]; male, Balb/c, mouse, plasma, Balb C mice, IV dose of 2 mg/Kg, read-out: Vdss): 1.2 L/kg | bioavailability ([1]; male, Balb/c, mouse, plasma, po, 10 mg/kg, Balb C mice, oral dose of 10 mg/Kg, read-out: Oral bioavailability (F %)): 91% | AUC(0-inf) [1, 6]: 4920 ng·h/mL | AUC(0-t) [1, 6]: 4480 ng·h/mL | Cmax [1, 6]: 2110 ng/mL | clearance [1, 6]: 6.77 mL/min/kg | C0 ([1]; male, mouse, plasma, Balb C mice, IV dose of 2 mg/Kg, extrapolated, calculated manually using initial 3 time points): 2130 ng/mL | half-life [1, 6]: 1.27 h | AUC(0-inf) [1, 7]: 21100 ng·h/mL | AUC(0-t) [1, 7]: 20300 ng·h/mL | Cmax [1, 7]: 4840 ng/mL | Tmax [1, 7]: 0.5 h | half-life [1, 7]: 6.32 h | clearance as share of hepatic blood flow (HBF) ([1]; mice, intravenous): 8 % hepatic blood flow | volume of distribution relative to total body water (TBW) ([1]; mice, intravenous): 40 times | Metabolic stability in liver microsomes [2]: > 80% | Metabolic stability in liver microsomes [3]: > 80% | Metabolic stability in liver microsomes [4]: > 80% | Metabolic stability in liver microsomes [5]: > 80% | IC50 (CYP 2C9): > 10 µM | IC50 (CYP2C19): > 10 µM
Structure (SMILES): COc1nc(OCc2cccc(-c3ccccc3)c2C)nc(OC)c1CN1CCCC[C@H]1C(=O)O [Compound 45, (S)-1-((4,6-dimethoxy-2-((2-methyl-[1,1′-biphenyl]-3-yl)methoxy)pyrimidin-5-yl)methyl)piperidine-2-carboxylic acid]
